Experimental data reported in PubChem BioAssay AID1959 (Broad Institute, 2009).
Activity calls are given as the source filed them.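 The calls were made as follows: active = growth-inhibition EC50 no more than tenfold above the top tested dose; inconclusive = flat fit between 30% and 70% inhibition, or unreliable fit; inactive = EC50 more than tenfold above the top tested dose.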

Test system: E. coli NEB5alpha growth, BacTiter-Glo luminescence, 4 h
Assay: Escherichia coli growth inhibition, dose response, counter-screen for MEX-5/POS-1 RNA-binding inhibitor project, luminescence, NEB5alpha (AID 1959);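 also: pUC19-transformed ampicillin-resistant cells grown in LB with ampicillin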

| SMILES | EC50 |
| --- | --- |
| Cc1ccccc1CSCCNC(=S)Nc1ccccc1 | > 11 µM (inactive) |
| Cc1cc(C(=O)O)ccc1-n1c(C)cc(/C=C2\SC(=O)NC2=O)c1C | > 11 µM (inactive) |
| Cc1cc(/C=C2\C(=O)NC(=O)N(c3ccccc3)C2=O)c(C)n1-c1ccc(C(=O)O)c(Cl)c1 | > 11 µM (inactive) |
| COC(=O)c1ccc(-n2c(C)cc(/C=N/Nc3nc(C)cc(=O)[nH]3)c2C)cc1 | > 11 µM (inactive) |
| COc1cccc(=O)c2c(C)oc(C)c12 | > 11 µM (inactive) |
| N=c1c(C(=O)NC2CCCCC2)cc2c(=O)n3ccccc3nc2n1Cc1cccnc1 | > 11 µM (inactive) |
| CCCCc1ccc(NC(=O)CSC2=NN3CCCC(=O)N=C3S2)cc1 | > 11 µM (inactive) |
| Cc1cccn2c(=O)c3cc(C(=O)NCC4CCCO4)c(=N)n(CCc4ccccc4)c3nc12 (stereo unspecified) | > 11 µM (inactive) |
| Cc1ccc(S(=O)(=O)N(CCCN2CCCC2=O)Cc2cc3c(C)ccc(C)c3[nH]c2=O)cc1 | > 11 µM (inactive) |
| Cc1ccc(-n2ncc3c(NNC(=O)c4ccco4)ncnc32)cc1C | > 11 µM (inactive) |
| COC(=O)CCC(=O)OC1(C)C(=O)C2=CN(CCCOC(C)C)C(c3ccc(OC)cc3)=CC2=C(Br)C1=O (stereo unspecified) | > 11 µM (inactive) |
| COc1ccccc1-c1cnn2c(NCc3ccccc3)cc(C)nc12 | > 11 µM (inactive) |
| O=C(N/N=C/c1c(O)n(CCc2ccccc2)c(=O)[nH]c1=O)c1ccccc1O | > 11 µM (inactive) |
| Cc1cc(/C=C2/C(=O)NC(=O)N(c3ccc(Br)cc3)C2=O)c(C)n1C | > 11 µM (inactive) |
| CSc1nnc(N2C(=O)C(O)=C(C(=O)c3ccco3)C2c2cccc(Cl)c2)s1 (stereo unspecified) | > 11 µM (inactive) |
| N=C1/C(=C\c2ccc(SCc3ccccc3)o2)C(=O)N=C2SC(CC(=O)N3CCOCC3)=NN12 | > 11 µM (inactive) |
| Cn1ncc2c(NNC(=O)Cc3ccccc3)ncnc21 | > 11 µM (inactive) |
| COc1ccc(/C=C/C(=O)c2c(O)n(CCC3=CCCCC3)c(=O)[nH]c2=O)cc1OC | > 11 µM (inactive) |
| O=c1[nH]c(=O)n(CCc2ccccc2)c(O)c1C=NCCCn1ccnc1 | > 11 µM (inactive) |
| O=C(O)COc1ccc(/C=C/c2nc(-c3ccccc3O)n[nH]2)cc1 | > 11 µM (inactive) |
| N#CC(C(=O)NCc1ccccc1)c1nc2ccccc2nc1N1CCCC1 (stereo unspecified) | > 11 µM (inactive) |
| O=C1C2CC=C(Cl)CC2C(=O)N1CC1Cc2ccccc2CO1 (stereo unspecified) | > 11 µM (inactive) |
| CCCC(C)NC(=O)c1ccc(C2SCC(=O)N2Cc2ccco2)cc1 (stereo unspecified) | > 11 µM (inactive) |
| Cc1c(NC(=O)c2coc(=O)c(Br)c2)c(=O)n(-c2ccccc2)n1C | > 11 µM (inactive) |

| SMILES | EC50 |
| --- | --- |
| CC(=O)N=c1c(C#N)cc2c(=O)n3cccc(C)c3nc2n1CCCOC(C)C | > 11 µM (inactive) |
| CCCn1nc(C(=O)Nc2ccc3nc(C)sc3c2)c2ccccc2c1=O | > 11 µM (inactive) |
| CCOC(=O)N1CCN(CC(=O)c2ccc(O)cc2O)CC1 | > 11 µM (inactive) |
| Cc1cc(/C=C2\C(=O)NC(=O)N(c3ccccc3F)C2=O)c(C)n1-c1cc(C(=O)O)cc(C(=O)O)c1 | > 11 µM (inactive) |
| CSc1ccc(C2C(C(=O)c3ccco3)=C(O)C(=O)N2c2nnc(SC)s2)cc1 (stereo unspecified) | > 11 µM (inactive) |
| COc1ccc(N=C(C)c2sc3ccccc3c2O)cc1 | > 11 µM (inactive) |
| CN(C)c1cc(-c2ccc([N+](=O)[O-])cc2)oc(=O)c1Cl | > 11 µM (inactive) |
| O=C1/C(=N\S(=O)(=O)c2cccs2)C([n+]2ccc(CCCc3ccccc3)cc2)=C([O-])c2ccccc21 | > 11 µM (inactive) |
| CC1(C)CC(=O)C2=C(C1)OC(N)=C(C#N)C21C(=O)N2CCCc3cccc1c32 (stereo unspecified) | > 11 µM (inactive) |
| Cc1cc(O)c(Oc2cc(C)cc(O)c2O)c(O)c1 | > 11 µM (inactive) |
| Oc1ccc2ccccc2c1/C=N/Nc1nnc(-c2ncc[nH]2)c2ccccc12 | > 11 µM (inactive) |
| COC(=O)CCC(=O)OC1(C)C(=O)C=C2C=C(C3CC3)OC=C2C1=O (stereo unspecified) | > 11 µM (inactive) |
| CCCCOC(=O)CSC1=C(C#N)C(c2ccccc2OCC)C(C#N)C(=O)N1 (stereo unspecified) | > 11 µM (inactive) |
| COc1cc2c(cc1OC)C(c1ccc(-c3ccc(Cl)cc3Cl)o1)=NCC2 | > 11 µM (inactive) |
| N=c1c(C(=O)NC2CCCCC2)cc2c(=O)n3ccccc3nc2n1CCc1ccccc1 | > 11 µM (inactive) |
| CCSC1=N/C(=C\c2ccccc2)C(=O)N1 | > 11 µM (inactive) |
| COC(=O)CCCC1=CC2=CC(=O)C(C)(OC(=O)c3ccco3)C(=O)C2=CO1 (stereo unspecified) | > 11 µM (inactive) |
| Cc1ccc(S(=O)(=O)/N=C2\C=C(Nc3cccc(C(=O)O)c3)C(=O)c3ccccc32)c(C)c1 | > 11 µM (inactive) |
| N#CC1=C(N)OC2=C(C(=O)CCC2)C1c1ccc(OC(=O)N2CCOCC2)cc1 (stereo unspecified) | > 11 µM (inactive) |
| CCN1C(=C(C#N)C#N)C=Cc2ccccc21 | > 11 µM (inactive) |
| CN=C1S/C(=C\c2ccc(O)c(OC)c2)C(=O)N1C | > 11 µM (inactive) |
| O=C(NCCO)c1ccc2nc(-c3ccco3)c(-c3ccco3)nc2c1 | > 11 µM (inactive) |
| Cc1ccc(/C=N/NC(=O)c2nnn(-c3nonc3N)c2-c2cccs2)cc1 | > 11 µM (inactive) |
| Cc1nc2ccccc2c2oc(C(=O)Nc3ccc4c(c3)OCCO4)cc12 | > 11 µM (inactive) |

| SMILES | EC50 |
| --- | --- |
| O=C1CNC(=S)N1CCc1ccc(O)c(O)c1 | > 11 µM (inactive) |
| COc1ccc(C2C=C(c3ccc(Br)s3)Nc3ncnn32)cc1OC (stereo unspecified) | > 11 µM (inactive) |
| COc1ccc(C(=O)NNC(=O)c2cnccn2)cc1[N+](=O)[O-] | > 11 µM (inactive) |
| Cc1cc(/C=C2\C(=O)NC(=O)N(c3ccc(Cl)cc3)C2=O)c(C)n1C | > 11 µM (inactive) |
| NS(=O)(=O)c1ccc(-c2cccc(/C=C3\SC(=O)NC3=O)c2)cc1 | > 11 µM (inactive) |
| O=C(NCCOc1ccccc1)C1Nc2ccc(OC(F)(F)F)cc2C2C=CCC12 (stereo unspecified) | > 11 µM (inactive) |
| COc1ccc(C2C(C#N)=C(/N=C/N3CCN(C)CC3)OC3=C2C(=O)CC(C)(C)C3)cc1 (stereo unspecified) | > 11 µM (inactive) |
| Cc1cccc(NC(=O)CN2C(=O)N/C(=C\c3cccn3-c3cccc(C(=O)O)c3)C2=O)c1 | > 11 µM (inactive) |
| CCOc1ccccc1N1CCN(C(=O)CNC(=O)c2ccccc2F)CC1 | > 11 µM (inactive) |
| CCCCNC(=S)NNC(=O)c1cc(C)on1 | > 11 µM (inactive) |
| Cc1ccc(Nc2ccc([N+](=O)[O-])ccc2=O)cc1 | > 11 µM (inactive) |
| CCn1cc(C(=O)NCc2ccccn2)c(=O)c2cc(S(=O)(=O)N3CCCCC3)ccc21 | > 11 µM (inactive) |
| CC1(OC(=O)c2cccs2)C(=O)C=C2C=C3CCCN3C=C2C1=O (stereo unspecified) | > 11 µM (inactive) |
| CCOc1cc(C(c2c(C)[nH][nH]c2=O)c2c(C)[nH][nH]c2=O)ccc1O | > 11 µM (inactive) |
| CCCCN1C(=O)/C(=C2/Sc3ccc(OC)cc3N2CC)SC1=S | > 11 µM (inactive) |
| Nc1cc(C(=O)O)c(N)c2c1C(=O)c1ccccc1C2=O | > 11 µM (inactive) |
| CC(=O)c1ccc(-c2ccc(/C=C(/Sc3n[nH]c(C)n3)C(=O)O)o2)cc1 | > 11 µM (inactive) |
| OC(C#Cc1ccccn1)c1cccs1 (stereo unspecified) | > 11 µM (inactive) |
| O=C(NCc1ccncc1)C(=O)N/N=C/c1ccccn1 | > 11 µM (inactive) |
| COc1ccc2c(c1)c1nc3ccccc3nc1n2Cc1ccc(OC)c(OC)c1 | > 11 µM (inactive) |
| NC(=O)[C@@H]1CCCN1Cc1c(C(=O)N2CCc3ccccc3C2)nc2ccc(Cl)cn12 | > 11 µM (inactive) |
| Cc1cc(CC(C)C)n(-c2nc3ccccc3c(=O)n2OCc2ccccc2)n1 | > 11 µM (inactive) |
| CC(C)Sc1nsc2nc(=O)c(/C=C3\C=Nc4ccccc43)c(N)n12 | > 11 µM (inactive) |
| CN1CCc2cccc3c2C1Cc1ccc(O)c(O)c1-3 (stereo unspecified) | > 11 µM (inactive) |

| SMILES | EC50 |
| --- | --- |
| CCOC(=O)c1cc(CC)sc1/N=C/c1c(O)[nH]c(=S)[nH]c1=O | > 11 µM (inactive) |
| CCCCC1=CC2=CC(=O)C(C)(OC(=O)CCc3ccccc3)C(=O)C2=CO1 (stereo unspecified) | > 11 µM (inactive) |
| COc1cccc(C2c3c(oc4ccccc4c3=O)C(=O)N2Cc2ccco2)c1 (stereo unspecified) | > 11 µM (inactive) |
| Cc1cccc(N=C2NC(=O)CS2)c1 | > 11 µM (inactive) |
| C=CCNC(=S)N1CCN(c2cccc(C(F)(F)F)c2)CC1 | > 11 µM (inactive) |
| NC(=O)c1cccc(N=Cc2cc(Cl)cc(Cl)c2O)c1 | > 11 µM (inactive) |
| COc1ccc(N=Cc2c(O)ccc3ccccc23)cc1 | > 11 µM (inactive) |
| CSc1nnc(N2C(=O)C(O)=C(C(=O)c3ccco3)C2c2ccc(F)cc2)s1 (stereo unspecified) | > 11 µM (inactive) |
| CCN1C(=O)/C(=C/c2c(C)nn(C)c2C)SC1=S | > 11 µM (inactive) |
| CCCOc1cccc(C2C(C(=O)c3ccco3)=C(O)C(=O)N2c2nnc(C)s2)c1 (stereo unspecified) | > 11 µM (inactive) |
| CC(C)CNC(=O)C1Nc2ccccc2C2C=CCC12 (stereo unspecified) | > 11 µM (inactive) |
| CCCCCN1C=CC=C/C1=C\C=C(C#N)C#N | > 11 µM (inactive) |
| N#Cc1c(NC(=O)/C=C/C(=O)O)sc2c1CCN(Cc1ccccc1)C2 | > 11 µM (inactive) |
| CCCCN1C(=O)/C(=C2/Sc3ccccc3N2C)S/C1=N\c1ncn[nH]1 | > 11 µM (inactive) |
| COc1ccccc1/C=C1/SC(=S)N(CCC(=O)Nc2cccnc2)C1=O | > 11 µM (inactive) |
| CC1(OC(=O)c2cnc3ccccc3n2)C(=O)C=C2C=C(c3ccc(C#N)cc3)OC=C2C1=O (stereo unspecified) | > 11 µM (inactive) |
| COc1cc(NCCCC(C)N)c2ncccc2c1 (stereo unspecified) | > 11 µM (inactive) |
| CC1(C)CC(=O)C2=C(C1)OC(N)=C(C#N)C2c1cc2c(cc1[N+](=O)[O-])OCO2 (stereo unspecified) | > 11 µM (inactive) |
| COc1ccc(CNC(=O)c2cnc3cc(C)ccn3c2=O)cc1 | > 11 µM (inactive) |
| O=S(=O)(Nc1ccc(O)c2ccccc12)c1ccc(Br)cc1 | > 11 µM (inactive) |
| Cc1ccc(/C(O)=C/c2nc3ccccc3oc2=O)cc1 | > 11 µM (inactive) |
| O=C1c2ccccc2C(=O)C1c1ccc2ccccc2n1 | > 11 µM (inactive) |
| O=C(NNC(=O)c1ccc2ccccc2c1O)c1ccccc1Cl | > 11 µM (inactive) |
| CN1CCc2cccc3c2[C@H]1Cc1ccc(O)c(O)c1-3 | > 11 µM (inactive) |
